Test results: PubChem BioAssay (NCI)
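Cultured in 96-well plates, cells were exposed to test compound for 48 hours across five concentrations. TGI marks complete inhibition of growth.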

Columns and labels:
Assay in all cases: inhibition of tumour cell growth, NCI panel, 48 h
786-0 renal = test system: 786-0 renal
A498 renal = test system: A498 renal
A549 NSCLC = test system: A549 NSCLC
ACHN renal = test system: ACHN renal
CAKI-1 renal = test system: CAKI-1 renal
CCRF-CEM leukemia = test system: CCRF-CEM leukemia
COLO 205 colon = test system: COLO 205 colon
DLD-1 colon = test system: DLD-1 colon
DMS 114 small cell lung = test system: DMS 114 small cell lung
DMS 273 small cell lung = test system: DMS 273 small cell lung
EKVX NSCLC = test system: EKVX NSCLC
HCC-2998 colon = test system: HCC-2998 colon
HCT-116 colon = test system: HCT-116 colon
HCT-15 colon = test system: HCT-15 colon
HL-60(TB) leukemia = test system: HL-60(TB) leukemia
HOP-18 NSCLC = test system: HOP-18 NSCLC
HOP-62 NSCLC = test system: HOP-62 NSCLC
HOP-92 NSCLC = test system: HOP-92 NSCLC
HT29 colon = test system: HT29 colon
IGROV1 ovarian = test system: IGROV1 ovarian
K-562 leukemia = test system: K-562 leukemia
KM12 colon = test system: KM12 colon
KM20L2 colon = test system: KM20L2 colon
LOX IMVI melanoma = test system: LOX IMVI melanoma
LXFL 529 NSCLC = test system: LXFL 529 NSCLC
M14 melanoma = test system: M14 melanoma
MALME-3M melanoma = test system: MALME-3M melanoma
MOLT-4 leukemia = test system: MOLT-4 leukemia
NCI-H226 lung = test system: NCI-H226 lung
NCI-H23 lung = test system: NCI-H23 lung
NCI-H460 lung = test system: NCI-H460 lung
NCI-H522 lung = test system: NCI-H522 lung
OVCAR-3 ovarian = test system: OVCAR-3 ovarian
OVCAR-4 ovarian = test system: OVCAR-4 ovarian
OVCAR-5 ovarian = test system: OVCAR-5 ovarian
OVCAR-8 ovarian = test system: OVCAR-8 ovarian
RPMI-8226 leukemia = test system: RPMI-8226 leukemia
RXF 393 renal = test system: RXF 393 renal
RXF-631 renal = test system: RXF-631 renal
SF-268 CNS = test system: SF-268 CNS
SF-295 CNS = test system: SF-295 CNS
SF-539 CNS = test system: SF-539 CNS
SK-MEL-2 melanoma = test system: SK-MEL-2 melanoma
SK-MEL-28 melanoma = test system: SK-MEL-28 melanoma
SK-MEL-5 melanoma = test system: SK-MEL-5 melanoma
SK-OV-3 ovarian = test system: SK-OV-3 ovarian
SN12C renal = test system: SN12C renal
SNB-19 CNS = test system: SNB-19 CNS
SNB-75 CNS = test system: SNB-75 CNS
SNB-78 CNS = test system: SNB-78 CNS
SW-620 colon = test system: SW-620 colon
TK-10 renal = test system: TK-10 renal
U251 CNS = test system: U251 CNS
UACC-257 melanoma = test system: UACC-257 melanoma
UACC-62 melanoma = test system: UACC-62 melanoma
UO-31 renal = test system: UO-31 renal
M19-MEL melanoma = test system: M19-MEL melanoma
SR leukemia = test system: SR leukemia
XF 498 CNS = test system: XF 498 CNS

For `CC(C)CC(N)C(=O)OCN1C(=O)C2C3C=CC(C2C1=O)C1C2C(=O)N(COC(=O)C(N)CC(C)C)C(=O)C2C31` (stereo not drawn), which TGI (786-0 renal) is on record?
Its TGI is greater than 100 µM.

And the TGI (A498 renal)?
The TGI was greater than 100 µM.

And the TGI (A549 NSCLC)?
The TGI was greater than 100 µM.

And the TGI (ACHN renal)?
Its TGI is greater than 100 µM.

What about the TGI (CAKI-1 renal) of the same molecule?
The TGI was greater than 100 µM.

What about the TGI (CCRF-CEM leukemia) of the same molecule?
The TGI was greater than 100 µM.

What about the TGI (COLO 205 colon) of the same molecule?
The TGI was greater than 100 µM.

And the TGI (DLD-1 colon)?
Its TGI is greater than 100 µM.

What about the TGI (DMS 114 small cell lung) of the same molecule?
Its TGI is greater than 100 µM.

What about the TGI (DMS 273 small cell lung) of the same molecule?
Its TGI is greater than 100 µM.

And the TGI (EKVX NSCLC)?
Its TGI is greater than 100 µM.

What about the TGI (HCC-2998 colon) of the same molecule?
Its TGI is greater than 100 µM.

And the TGI (HCT-116 colon)?
Its TGI is greater than 60.5 µM.

What about the TGI (HCT-15 colon) of the same molecule?
Its TGI is greater than 64.5 µM.

And the TGI (HL-60(TB) leukemia)?
Its TGI is 65.2 µM.

What about the TGI (HOP-18 NSCLC) of the same molecule?
Its TGI is greater than 100 µM.

And the TGI (HOP-62 NSCLC)?
Its TGI is greater than 100 µM.

What about the TGI (HOP-92 NSCLC) of the same molecule?
Its TGI is greater than 100 µM.

What about the TGI (HT29 colon) of the same molecule?
The TGI was greater than 100 µM.

And the TGI (IGROV1 ovarian)?
Its TGI is greater than 100 µM.

What about the TGI (K-562 leukemia) of the same molecule?
The TGI was greater than 100 µM.

What about the TGI (KM12 colon) of the same molecule?
The TGI was greater than 100 µM.

And the TGI (KM20L2 colon)?
The TGI was greater than 100 µM.

What about the TGI (LOX IMVI melanoma) of the same molecule?
Its TGI is greater than 58.1 µM.

What about the TGI (LXFL 529 NSCLC) of the same molecule?
The TGI was greater than 100 µM.

What about the TGI (M14 melanoma) of the same molecule?
The TGI was greater than 100 µM.

And the TGI (MALME-3M melanoma)?
The TGI was greater than 100 µM.

And the TGI (MOLT-4 leukemia)?
The TGI was greater than 100 µM.

What about the TGI (NCI-H226 lung) of the same molecule?
Its TGI is greater than 100 µM.

What about the TGI (NCI-H23 lung) of the same molecule?
The TGI was greater than 100 µM.

And the TGI (NCI-H460 lung)?
Its TGI is greater than 100 µM.

What about the TGI (NCI-H522 lung) of the same molecule?
The TGI was greater than 100 µM.

And the TGI (OVCAR-3 ovarian)?
Its TGI is greater than 100 µM.

What about the TGI (OVCAR-4 ovarian) of the same molecule?
The TGI was greater than 100 µM.

What about the TGI (OVCAR-5 ovarian) of the same molecule?
Its TGI is greater than 100 µM.

What about the TGI (OVCAR-8 ovarian) of the same molecule?
Its TGI is greater than 100 µM.

What about the TGI (RPMI-8226 leukemia) of the same molecule?
The TGI was greater than 78.6 µM.

What about the TGI (RXF 393 renal) of the same molecule?
Its TGI is greater than 100 µM.

What about the TGI (RXF-631 renal) of the same molecule?
Its TGI is greater than 100 µM.

What about the TGI (SF-268 CNS) of the same molecule?
Its TGI is greater than 100 µM.

What about the TGI (SF-295 CNS) of the same molecule?
Its TGI is greater than 100 µM.

What about the TGI (SF-539 CNS) of the same molecule?
The TGI was greater than 100 µM.

What about the TGI (SK-MEL-2 melanoma) of the same molecule?
Its TGI is greater than 100 µM.

And the TGI (SK-MEL-28 melanoma)?
Its TGI is greater than 100 µM.

What about the TGI (SK-MEL-5 melanoma) of the same molecule?
The TGI was greater than 100 µM.

And the TGI (SK-OV-3 ovarian)?
Its TGI is greater than 100 µM.

And the TGI (SN12C renal)?
The TGI was greater than 100 µM.

And the TGI (SNB-19 CNS)?
The TGI was greater than 100 µM.

And the TGI (SNB-75 CNS)?
The TGI was greater than 100 µM.

And the TGI (SNB-78 CNS)?
The TGI was greater than 100 µM.

What about the TGI (SW-620 colon) of the same molecule?
The TGI was greater than 75.6 µM.

And the TGI (TK-10 renal)?
Its TGI is greater than 100 µM.

What about the TGI (U251 CNS) of the same molecule?
Its TGI is greater than 100 µM.

And the TGI (UACC-257 melanoma)?
The TGI was greater than 100 µM.

And the TGI (UACC-62 melanoma)?
The TGI was greater than 100 µM.

And the TGI (UO-31 renal)?
The TGI was greater than 100 µM.

`COC(=O)C(c1[nH]nc2ccccc12)C(C(=O)OC)c1[nH]nc2ccccc12` (stereo not drawn) was tested. Which TGI (786-0 renal) did it give?
The TGI was greater than 100 µM.

What about the TGI (A498 renal) of the same molecule?
Its TGI is greater than 100 µM.

What about the TGI (A549 NSCLC) of the same molecule?
The TGI was greater than 100 µM.

And the TGI (ACHN renal)?
Its TGI is greater than 100 µM.

And the TGI (CCRF-CEM leukemia)?
Its TGI is greater than 100 µM.

And the TGI (DLD-1 colon)?
Its TGI is greater than 100 µM.

And the TGI (DMS 114 small cell lung)?
The TGI was 83.8 µM.

And the TGI (EKVX NSCLC)?
Its TGI is greater than 100 µM.

What about the TGI (HCC-2998 colon) of the same molecule?
Its TGI is greater than 100 µM.

What about the TGI (HCT-116 colon) of the same molecule?
The TGI was greater than 100 µM.

What about the TGI (HCT-15 colon) of the same molecule?
The TGI was greater than 100 µM.

What about the TGI (HL-60(TB) leukemia) of the same molecule?
Its TGI is 50.5 µM.

What about the TGI (HOP-18 NSCLC) of the same molecule?
Its TGI is greater than 100 µM.

And the TGI (HOP-62 NSCLC)?
The TGI was greater than 100 µM.

And the TGI (HT29 colon)?
The TGI was greater than 100 µM.

And the TGI (IGROV1 ovarian)?
The TGI was greater than 100 µM.

And the TGI (K-562 leukemia)?
The TGI was greater than 100 µM.

What about the TGI (KM12 colon) of the same molecule?
The TGI was greater than 100 µM.

What about the TGI (KM20L2 colon) of the same molecule?
The TGI was greater than 100 µM.

What about the TGI (LOX IMVI melanoma) of the same molecule?
The TGI was greater than 100 µM.

What about the TGI (LXFL 529 NSCLC) of the same molecule?
Its TGI is greater than 100 µM.

What about the TGI (M14 melanoma) of the same molecule?
Its TGI is greater than 100 µM.

What about the TGI (M19-MEL melanoma) of the same molecule?
Its TGI is greater than 100 µM.

And the TGI (MALME-3M melanoma)?
The TGI was greater than 100 µM.

What about the TGI (MOLT-4 leukemia) of the same molecule?
Its TGI is 82.5 µM.

And the TGI (NCI-H226 lung)?
The TGI was greater than 100 µM.

And the TGI (NCI-H23 lung)?
The TGI was greater than 100 µM.

What about the TGI (NCI-H460 lung) of the same molecule?
Its TGI is greater than 100 µM.

And the TGI (OVCAR-3 ovarian)?
The TGI was greater than 100 µM.

What about the TGI (OVCAR-4 ovarian) of the same molecule?
Its TGI is 53.4 µM.

And the TGI (OVCAR-5 ovarian)?
Its TGI is greater than 100 µM.

And the TGI (OVCAR-8 ovarian)?
Its TGI is 77.6 µM.

What about the TGI (RPMI-8226 leukemia) of the same molecule?
Its TGI is 50.4 µM.

And the TGI (RXF 393 renal)?
The TGI was 66.3 µM.

What about the TGI (RXF-631 renal) of the same molecule?
Its TGI is greater than 100 µM.

What about the TGI (SF-268 CNS) of the same molecule?
The TGI was greater than 100 µM.

What about the TGI (SF-295 CNS) of the same molecule?
Its TGI is greater than 100 µM.

And the TGI (SF-539 CNS)?
Its TGI is 44.9 µM.

What about the TGI (SK-MEL-28 melanoma) of the same molecule?
Its TGI is greater than 100 µM.

What about the TGI (SK-OV-3 ovarian) of the same molecule?
Its TGI is greater than 100 µM.

What about the TGI (SN12C renal) of the same molecule?
Its TGI is greater than 100 µM.

What about the TGI (SNB-19 CNS) of the same molecule?
The TGI was greater than 100 µM.

What about the TGI (SNB-75 CNS) of the same molecule?
Its TGI is greater than 100 µM.

What about the TGI (SNB-78 CNS) of the same molecule?
The TGI was greater than 100 µM.

And the TGI (SR leukemia)?
The TGI was greater than 100 µM.

And the TGI (SW-620 colon)?
The TGI was 33.7 µM.

What about the TGI (TK-10 renal) of the same molecule?
The TGI was greater than 100 µM.

What about the TGI (U251 CNS) of the same molecule?
The TGI was greater than 100 µM.

And the TGI (UACC-257 melanoma)?
The TGI was greater than 100 µM.

And the TGI (UACC-62 melanoma)?
Its TGI is greater than 100 µM.

And the TGI (UO-31 renal)?
Its TGI is greater than 100 µM.

What about the TGI (XF 498 CNS) of the same molecule?
The TGI was greater than 100 µM.
